Data reported in patent US4389343A, “Immunopotentiating peptides from thymus” (Hoffmann-La Roche Inc., priority 1981, dated 1983).
Where no end group is shown, it is not given here.

Tests used:
[1] = system: Candida albicans ATCC 10231; assay: protective activity against opportunistic infections in immunosuppressed mice; type: in vivo; conditions: female ddY mice infected with Candida albicans 24 hours after last treatment
Protocol: The compounds of formula I were tested for protective activity against opportunistic infections in immunosuppressed mice. Female ddY mice (6 weeks old) weighing about 25 g were pretreated daily for eight days with 5-fluorouracil (5-FU) (25 mg/kg/day, i.p.) and with thymosin α1or with compounds of formula I (i.p.) at varying dosages. The mice were then infected with Candida albicans ATCC 10231 (1×10^5 cells or more) at 24 hours after the last treatment. One control group was administered 5-FU and saline solution and a second control group received neither 5-FU nor a thymic polypeptide prior to infection with Candida albicans.

[2] = isoelectric point by preparative isoelectric focusing; type: physicochemical
Protocol: It is preferred that the compound of formula II be separated conventionally from Thymosin Fraction 5 using preparative isoelectric focusing, with the proteins recovered therefrom being purified by HPLC. By such a procedure, for example, 1.2 grams of Thymosin Fraction 5 provided 16 mg of thymosin α1, 16 mg of thymosin β4 and 1 mg of the compound of formula II. The isoelectric point for the compound of formula II was pH 4.62.
Any reverse phase hydrophobic resin may be employed in a conventional manner in the HPLC isolation. Among such resins there are included, for example, a hydrocarbon (C8 to C18) on any inert matrix such as silica gel, glass, polysaccharides and the like, which matrix is inert to the eluting agent being employed. The preferred resin is a straight chain C18 hydrocarbon bonded to silica gel or glass beads. […]
A sample of thymosin Fraction 5 (1.2 g) was dissolved in 100 ml of 2% ampholine for separation in the pH range 4-6 and filtered through a 0.45 μm molecular pore filter. […] The focused gel was cut with a grid into 30 sections, each of which was eluted on a small column with 5 ml of H2 O. The pH of eluate was determined at 0° C. […] Fractions (0.7 ml) were collected every 2 min and aliquots (5 μl of a 1:25 dilution) of each aliquot analyzed by direct injection into the borate buffer line of the fluorescamine detector, because the automatic column monitoring was off-scale.

[3] = 4 μg/kg/day i.p. daily for eight days with 5-FU 25 mg/kg/day i.p.
[4] = 40 μg/kg/day i.p. daily for eight days with 5-FU 25 mg/kg/day i.p.
[5] = 0.4 μg/kg/day i.p. daily for eight days with 5-FU 25 mg/kg/day i.p.

Substance | Survivors at Day 8 [1, 3] | Survivors at Day 15 [1, 3] | Survivors at Day 8 [1, 4] | Survivors at Day 15 [1, 4] | Survivors at Day 8 [1, 5] | Survivors at Day 15 [1, 5] | isoelectric point [2]
Thymosin α1: acidic peptide containing 28 amino acid residues isolated from Thymosin Fraction 5, U.S. Pat. No. 4,079,127 (SDAAVDTSSEITTKDLKEKKEVVEEAEN; ends and bridges not checked; UniProt P01252 2-29, looked up) | 7/10 | 6/10 | 7/10 | 7/10 |  |  | 
Thymosin β4: peptide isolated from Thymosin Fraction 5 containing 44 amino acid residues | 5/10 | 5/10 | 1/10 | 1/10 | 7/10 | 6/10 | 
Thymosin β8: polypeptide isolated from calf thymus Fraction 5, 4,518 daltons, 39 amino acid residues, NH2-terminus acetyl alanine (ADKPDLGEINSFDKAKLKKTETQEKNTLPTKETIEQEKQ; thymosin beta-8 N-terminal acetyl; UniProt P21752 2-40, looked up, fragment) |  |  |  |  |  |  | 4.62 pH
Thymosin β9: polypeptide from fresh frozen calf thymus, identical to thymosin β8 plus --Ala--LysOH at the COOH-terminus, 4,717 daltons, 41 amino acids (ADKPDLGEINSFDKAKLKKTETQEKNTLPTKETIEQEKQAK; not fully specified; Thymosin beta-9; UniProt P21752 2-42, looked up) |  |  |  |  |  |  | 5.14 pH
